According to patent US20260007634A1, “PHARMACEUTICAL COMPOSITIONS FOR THE TREATMENT OF ALLERGIC DISEASES” (KINKI UNIVERSITY, priority 2022, published 2026):

Columns and labels:
Assay type in all cases: in vivo, mouse
IL-17 [1] = test: Serum IL-17 ELISA, cedar pollinosis mice; settings: serum day 28, oral 10 mg/kg (dexamethasone 2 mg/kg), control 18, vehicle 397
Experimental: (§1) A 0.2 mL dose of 100 μg cedar pollen and 1 mg Alum mixture was administered to 6-week-old female Balb/c mice (Japan SLC Inc.) (day 0 of the example). Alum was used as an adjuvant. Seven days later and 14 days later, the Balb/c mice were immunized again with 0.2 mL injections of the above mixture. Starting on day 20, mice were orally treated with 10 mg/kg of norathyriol, 10 mg/kg of mangiferin 8a, 10 mg/kg of tofacitinib (JAK inhibitor), 2 mg/kg of dexamethasone (steroid) and 10 mg/kg of olopatadine (antihistamine) daily for 8 consecutive days. Starting on day 21, 500 μg cedar pollen was administered intranasally, and nose-scratching behavior was measured on day 27. Note that tofacitinib, dexamethasone, and olopatadine are currently in clinical use in cedar pollinosis and were used as control drugs in this example.
Serum was collected from day 28 mice in Examples 28 and 29, and IL-17 production was measured by enzyme-linked immunosorbent assay (ELISA). This assay was performed using a mouse IL-17 ELISA kit (R&D).

BAFF [2] = test: Serum BAFF ELISA, bronchial asthma mice; settings: OVA bronchial asthma; serum day 28; oral 10 mg/kg (dexamethasone 2 mg/kg); control 97, vehicle 1319
Experimental: A 0.2 mL dose of 50 μg ovalbumin (OVA) and 2 mg Alum mixture was administered to 6-week-old female Balb/c mice (Japan SLC Inc.) (day 0 of the example). Alum was used as an adjuvant. Seven days later and 14 days later, the Balb/c mice were immunized again with 0.2 mL injections of the above mixture. Starting on day 20, mice were orally treated with 10 mg/kg of norathyriol, 10 mg/kg of mangiferin 8a, 10 mg/kg of tofacitinib (JAK inhibitor), 2 mg/kg of dexamethasone (steroid) and 10 mg/kg of olopatadine (antihistamine) daily for 8 consecutive days. Starting on day 21, 400 μg OVA was administered intranasally, and cough was measured on day 27. […]
Serum was collected from day 28 mice in Examples 14, and BAFF production was measured by enzyme-linked immunosorbent assay (ELISA). This assay was performed using a mouse BAFF ELISA kit (R&D).

IL-17 [3] = test: Serum IL-17 ELISA, food allergy mice; settings: OVA food allergy; serum day 28; oral 10 mg/kg (dexamethasone 2 mg/kg); control 98, vehicle 875
Experimental: (§2) A 0.2 mL dose of 10 μg ovalbumin (OVA) and 1 mg Alum mixture was administered to 6-week-old female Balb/c mice (Japan SLC Inc.) (day 0 of the example). Alum was used as an adjuvant. Seven days later, the Balb/c mice were immunized again with a 0.2 mL injection of the above mixture. Starting on day 14, mice were orally treated with 10 mg/kg of norathyriol, 10 mg/kg of mangiferin 8a, 10 mg/kg of tofacitinib (JAK inhibitor), 2 mg/kg of dexamethasone (steroid) and 10 mg/kg of olopatadine (antihistamine) daily for 14 consecutive days. Starting on day 14, 10 mg OVA was administered orally every other day […], and the frequency of diarrhea was measured after the final administration on day 28. Note that tofacitinib, dexamethasone, and olopatadine are currently in clinical use in food allergy and were used as control drugs in this example.
Serum was collected from day 28 mice in Examples 21, and IL-17 production was measured by enzyme-linked immunosorbent assay (ELISA). This assay was performed using a mouse IL-17 ELISA kit (R&D).

BAFF [4] = test: Serum BAFF ELISA, food allergy mice; settings: OVA food allergy; serum day 28; oral 10 mg/kg (dexamethasone 2 mg/kg); control 134, vehicle 845
Experimental: as §2
Serum was collected from day 28 mice in Examples 21, and BAFF production was measured by enzyme-linked immunosorbent assay (ELISA). This assay was performed using a mouse BAFF ELISA kit (R&D).

[5] = system: Balb/c mice with cedar pollinosis; test: Nose scratching behavior, cedar pollinosis model mice; settings: oral daily 8 days from day 20, 10 mg/kg (dexamethasone 2 mg/kg), measured day 27, vs vehicle group
Experimental: as §1
(§3) The group that was just immunized with cedar pollen is called the subject group, the one that received norathyriol is called the norathyriol group, the one that received mangiferin 8a is called the mangiferin 8a group, the one that received tofacitinib is called the tofacitinib group, the one that received dexamethasone is called the dexamethasone group, and the one that received olopatadine is called the olopatadine group. Each group consisted of five animals.

[6] = system: Balb/c mice with ovalbumin-induced allergic rhinitis; test: Nose scratching behavior, ovalbumin-induced allergic rhinitis mice; settings: OVA allergic rhinitis; oral daily 8 days from day 20, 10 mg/kg (dexamethasone 2 mg/kg); measured day 27; vs vehicle group
Experimental: (§4) A 0.2 mL dose of 50 μg ovalbumin (OVA) and 2 mg Alum mixture was administered to 6-week-old female Balb/c mice (Japan SLC Inc.) (day 0 of the example). Alum was used as an adjuvant. Seven days later and 14 days later, the Balb/c mice were immunized again with 0.2 mL injections of the above mixture. Starting on day 20, mice were orally treated with 10 mg/kg of norathyriol, 10 mg/kg of mangiferin 8a, 10 mg/kg of tofacitinib (JAK inhibitor), 2 mg/kg of dexamethasone (steroid) and 10 mg/kg of olopatadine (antihistamine) daily for 8 consecutive days. Starting on day 21, 400 μg OVA was administered intranasally, and nose-scratching behavior was measured on day 27. Note that tofacitinib, dexamethasone, and olopatadine are currently in clinical use in allergic rhinitis and were used as control drugs in this example.
as §3, with “OVA” for “cedar pollen”

[7] = system: Balb/c mice with ovalbumin-induced bronchial asthma; test: Cough, ovalbumin-induced bronchial asthma mice; settings: OVA bronchial asthma; oral daily 8 days from day 20, 10 mg/kg (dexamethasone 2 mg/kg); measured day 27; vs vehicle group
Experimental: as §4, with “cough” for “nose-scratching behavior”
as §3, with “OVA” for “cedar pollen”

SMILES | amount of IL-17 (IL-17 [1]) | amount of BAFF (BAFF [2]) | amount of IL-17 (IL-17 [3]) | amount of BAFF (BAFF [4]) | number of nose scratches [5] | number of nose scratches [6] | number of coughs [7]
C[C@@H]1C[C@H]2[C@@H]3CCC4=CC(=O)C=C[C@]4(C)[C@@]3(F)[C@@H](O)C[C@]2(C)[C@@]1(O)C(=O)CO [dexamethasone] | 49 pg/mL | 321 pg/mL | 216 pg/mL | 251 pg/mL | – | – | –
O=c1c2cc(O)c(O)cc2oc2cc(O)cc(O)c12 [norathyriol, 1,3,6,7-tetrahydroxyxanthone] | 195 pg/mL | 649 pg/mL | 451 pg/mL | 426 pg/mL | significantly decreased the number of nose scratches | significantly decreased the number of nose scratches | significantly decreased the number of coughs
CN(C)CC/C=C1/c2ccccc2COc2ccc(CC(=O)O)cc21 [olopatadine] | 172 pg/mL | 1304 pg/mL | 721 pg/mL | 715 pg/mL | significantly decreased the number of nose scratches | significantly decreased the number of nose scratches | significantly decreased the number of coughs
C[C@@H]1CCN(C(=O)CC#N)C[C@@H]1N(C)c1ncnc2[nH]ccc12 [tofacitinib] | 244 pg/mL | 902 pg/mL | 741 pg/mL | 598 pg/mL | significantly decreased the number of nose scratches | significantly decreased the number of nose scratches | significantly decreased the number of coughs
